Earlier results on 1 compound are cited in US8309490B2, “Low VOC and stable plant growth regulator liquid and granule compositions” (Valent BioSciences Corporation, priority 2009, dated 2012).

For the series the following is noted: at 25° C.

For the compound `O=C(Nc1ccccc1)Nc1ccnc(Cl)c1` [CPPU, forchlorfenuron], the water solubility was 39 ppm.
